Experimental findings from patent publication US9642854B2, “Flavanoid compounds and process for preparation thereof” (Council of Scientific & Industrial Research, priority 2009, dated 2017) are described below.

For assay [1], the system named is H. pylori. Description: Anti H. pylori screening by disc diffusion susceptibility assay. The class given is cell-based, Helicobacter pylori. The arrangement: key: strongly active (3^+, diameter>30 mm); intermediate active (2^+, ˜20-30 mm diameter); moderately active (1^+, ˜10-20 mm diameter); not active (<10 mm diameter). Conditions: two doses, majority of the strains. The method, then:
(§1) The discs were impregnated with […] of each of the compounds, dissolved either in ethanol or DMSO, and the zone of inhibition was measured after 72 h of growth under microaerophilic conditions at 37° C. Inhibition zone diameter ranging 10-20 mm was given a score of ^+, 20-30 mm as ^++ and that of >30 mm as ^+++, as obtained employing dose range of […]/disc. The detailed structural information of the molecules is provided under ‘Description of the Compounds’.
(§2) Methods and protocols for the determination of inhibition zone diameter are as stated under Experiment 1, and that of MIC values by microbroth dilution assay as in Experiment 3. ‘Nil’ means zone of inhibition below 10 mm.
(§3) The anti H. pylori activity of all 16 flavonoid molecules, 2 naturally isolated and 14 synthetic derivatives, was screened by disc diffusion sensitivity assay employing 2 clinical strains HP001 and HP002, and three standard strains ATCC® 700392, 43504 and 49503. A 0.5 mL inoculum (10^8 CFU/mL) for each bacterial strain tested was flooded on freshly prepared Brain Heart Infusion (BHI) agar plates supplemented with 7% FCS, 0.5% IsoVitalex and 0.0025% DENT® and the discs (5 mm diameter) containing different compounds or antibiotics (dissolved either in ethanol or DMSO) were placed on the agar surface. After incubation for 3 days in a microaerophilic atmosphere at 37° C., the diameter of the zone of inhibition was measured (Glupczynsky, 1996; McNulty et al., 2002).

Assay [2] deals with H. pylori. The assay is described as above. The class given is cell-based, Helicobacter pylori. The arrangement: key: strongly active (diameter>30 mm) and were given a score of 3^+; intermediate active (^˜20-30 mm diameter) and were given a score of 2^+; moderately active (^˜10-20 min diameter) and were given a score of 1^+; not active (>10 mm diameter). Conditions: 100 and 200 μg/disc, majority of the strains. The protocol: as §1, §2, §3

Assay [3] has as its system H. pylori. The assay is described as above. The class given is cell-based, Helicobacter pylori. Conditions: 100 and 200 mg/disc (so in the source), 72 h. In short, it runs like this:
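Clinical strains HP001, HP002 and ATCC 700392, 43504, 49503 (10^8 CFU/mL) spread on supplemented BHI agar; 5 mm discs loaded with 100 and 200 […] compound in ethanol or DMSO. Zones read after 72 h microaerophilic growth at 37 °C; scored + (10-20 mm), ++ (20-30 mm), +++ (>30 mm), Nil <10 mm.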

Assay [4] concerns the target T1, pig gastric H^+,K^+-ATPase (Sus scrofa, UniProt P19156).
T1 construct: tubulovesicular and apical membranes, isolated from freshly slaughtered pig gastric mucosa; from tissue; host or cells: pig gastric mucosa (membrane fraction by density gradient centrifugation)
Kind of assay: Gastric H+,K+-ATPase activity assay. The class given is biochemical. The method, then:
The data are averages of 3-4 determinations each carried out in triplicate. The assay system contained 10 mM PIPES-Tris (pH 6.8), 2 mM each of ATP and MgCl2 with or without 10 mM KCl and about […] in a final volume of 1 mL. Both blank and experimental tubes with or without CPP-1 at different concentrations were preincubated with otherwise complete assay mixture at 37° C. for 10 min before initiating the reaction with the substrate ATP. K^+-stimulated activity referred to as H^+,K^+-ATPase activity, was calculated as the difference between the activity in presence of Mg^2+ plus K^+ and the basal activity (Mg^2+-ATPase) in presence of Mg2^+ alone. The specific activity of H^+,K^+-ATPase in control sets was in the range of 40-50 μmole Pi/mg protein/h.
The effect of CPP-1 on gastric H^+K^+-ATPase was investigated. Isolation of pig gastric mucosal membranes, rich in H^+,K^+-ATPase activity, was carried out by density gradient centrifugation technique (Ray, 1978). The enzyme assay system contained 10 mM PIPES-Tris (pH 6.8), 2 mM each of ATP and MgCl with or without 10 mM KCl and about […] in a final volume of 1 mL. Both blank and experimental tubes with or without CPP-1 at different concentrations were preincubated with otherwise complete assay mixture at 37° C. for 10 min before initiating the reaction with the substrate ATP. After appropriate time of incubation with ATP at 37° C., the reaction was terminated with the addition of 1 mL of ice-cold TCA (14%, w/v). The liberated inorganic phosphate (Pi) was estimated essentially by the method of Sanui (1974). K^+-stimulated activity referred to as H^+,K^+-ATPase activity, was calculated as the difference between the activity in presence of Mg^2+ plus K^+ and the basal activity (Mg^2+-ATPase) in presence of Mg^2+ alone. The specific activity of H^+,K^+-ATPase was expressed as micromoles of Pi liberated per hour per milligram protein. The data are averages of 3-4 determinations each carried out in triplicate. The specific activity of H^+,K^+-ATPase in control sets was in the range of 40-50 μmole Pi/mg protein/h.

Assay [5] concerns H. pylori. Description: Anti H. pylori spectrum (MIC) by agar dilution method. The class given is cell-based, Helicobacter pylori. Conditions: Helicobacter pylori; for MIC50: MIC against 50% of the strains of the panel, read-out: MIC50. An outline of the steps:
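Agar dilution per CLSI against six clinical isolates and four standard strains on BHI agar with 7% FCS, 0.5% IsoVitalex and DENT. Inoculum ~10^8 CFU/mL; 2-fold compound dilutions from 1.56-100; 72 h microaerophilic at 37 °C. MIC read visually as no growth, in duplicate; MIC50 covers 50% of strains.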
(In general: In agar dilution, organisms are placed on agar that contains the substance at set levels.)

For assay [6], the system named is H. pylori. Description: MIC and MBC by microbroth dilution assay. The class given is cell-based, Helicobacter pylori. Conditions: Helicobacter pylori. The protocol: The compounds, serially diluted ([…]) in Muller Hinton broth containing 5% FCS, were incubated in 96-well microtitre plate containing fresh cultures of HP001 (˜5.5×10^6 CFU/mL) or ATCC® 43504 (2.65×10^6 CFU/ml) in a final volume of […]. After 72-h of incubation under microaerophilic condition at 37° C., […] of cultures wherein no growth had been detected were streaked on fresh brain heart infusion agar plates for MBC determination.
In microbroth dilution assay employing one clinical and one standard strain, both the bacteriostatic and the bactericidal values were determined for all four compounds as well as for clarithromycin (Table 4). Two-fold serial dilutions were prepared in 96-well microtitre plate containing a total volume of 0.1 mL Mueller Hinton broth supplemented with 5% FCS. A 3-day old liquid culture was diluted 10 times in Mueller Hinton broth and 0.1 mL of these cultures was inoculated into each well to give a final concentration of ˜10^6 CFU/mL. The plates were incubated for 3 days in a microaerophilic atmosphere at 37° C. Following incubation, the plates were examined visually, and the lowest concentration showing complete inhibition of growth was recorded as the MIC of the respective compound (Hachem et al., 1996). Aliquots (0.1 mL) of 72-h culture in which no growth had been detected were taken from the wells of the above microtitre plates and used to streak on fresh BHI agar plates.

Assay [7] relates to H. pylori. Description: Acid stability study (pH ~2.0, 2 h, then MIC/MBC by microbroth dilution). Conditions: Helicobacter pylori. The class given is cell-based, Helicobacter pylori. The method, then:
Details of experimental protocol are described under Experiment 7. MIC/MBC values were determined by microbroth dilution assay.
A 100 μL stock of CPP-1, NMC-1, NMC-2 and CPP-3 (1-2 mg/mL) was treated with 20-30 μL of 0.12 NHCl to bring the pH of the solution to ^˜2.0, and kept at 25° C. for 2 h (Funatogawa et al., 2004). Such acid-treated samples were then serially diluted (2 fold) with medium in 96-well microtitre plates to determine the MIC and the MBC values by microbroth dilution assay as detailed under Experiment 3.
On the technique in general: In broth dilution the organism is exposed to a series of concentrations in liquid medium.

Assay [8] deals with H. pylori. Description: Time kill kinetic analyses in biphasic culture. The class given is cell-based, Helicobacter pylori.
Setting [9] is: ATCC43504, microbroth dilution, ATCC 43504.

In brackets after ≈: the same amount, converted by molar mass. Where two headings read alike, the source gives them in different places.

T1 sequence (P19156 2-1034 limits assumed): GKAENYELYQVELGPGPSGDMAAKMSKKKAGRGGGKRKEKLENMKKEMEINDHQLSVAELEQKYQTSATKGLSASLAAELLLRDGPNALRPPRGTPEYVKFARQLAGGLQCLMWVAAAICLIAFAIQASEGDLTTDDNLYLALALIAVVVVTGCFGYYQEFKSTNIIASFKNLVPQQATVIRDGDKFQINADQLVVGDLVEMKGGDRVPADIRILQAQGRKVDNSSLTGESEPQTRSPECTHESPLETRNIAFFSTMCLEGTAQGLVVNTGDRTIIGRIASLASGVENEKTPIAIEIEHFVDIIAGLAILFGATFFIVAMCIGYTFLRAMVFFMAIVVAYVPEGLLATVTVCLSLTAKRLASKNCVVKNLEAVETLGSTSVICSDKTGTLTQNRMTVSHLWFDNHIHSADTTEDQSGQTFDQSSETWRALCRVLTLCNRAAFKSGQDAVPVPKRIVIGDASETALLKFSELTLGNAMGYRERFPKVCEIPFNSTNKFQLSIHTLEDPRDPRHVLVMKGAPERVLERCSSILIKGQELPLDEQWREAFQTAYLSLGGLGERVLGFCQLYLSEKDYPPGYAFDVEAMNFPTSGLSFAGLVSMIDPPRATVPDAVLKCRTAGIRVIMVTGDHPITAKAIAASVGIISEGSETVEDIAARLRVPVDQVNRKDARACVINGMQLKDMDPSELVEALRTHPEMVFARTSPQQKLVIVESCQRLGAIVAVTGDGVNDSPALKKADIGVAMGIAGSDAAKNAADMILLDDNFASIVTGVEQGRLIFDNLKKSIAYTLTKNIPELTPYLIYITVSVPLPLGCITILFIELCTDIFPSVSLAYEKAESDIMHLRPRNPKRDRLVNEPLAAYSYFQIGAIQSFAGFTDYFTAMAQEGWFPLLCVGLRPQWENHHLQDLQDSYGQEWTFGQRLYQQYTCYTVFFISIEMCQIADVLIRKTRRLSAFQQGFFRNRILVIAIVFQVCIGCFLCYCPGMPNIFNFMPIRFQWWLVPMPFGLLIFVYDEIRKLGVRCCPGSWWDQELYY
T1 sequence (P18434 whole entry partner): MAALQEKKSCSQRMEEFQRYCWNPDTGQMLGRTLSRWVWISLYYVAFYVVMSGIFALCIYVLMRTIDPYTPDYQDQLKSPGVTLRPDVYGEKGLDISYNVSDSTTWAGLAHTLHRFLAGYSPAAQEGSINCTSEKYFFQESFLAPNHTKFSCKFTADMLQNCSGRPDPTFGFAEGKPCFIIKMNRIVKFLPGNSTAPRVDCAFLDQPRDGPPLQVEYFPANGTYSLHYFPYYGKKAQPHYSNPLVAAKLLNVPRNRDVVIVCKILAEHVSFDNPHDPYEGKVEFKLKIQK

As to `CCCCCCCCCCCCCCCCC(=O)Oc1cc2oc(-c3ccccc3)cc(=O)c2c(O)c1OC` [ORC-16, Heptadecanoic acid 5-hydroxy-6-methoxy-4-oxo-2-phenyl-4H-chromen-7-yl ester], the “Activity class by inhibition zone diameter” value in the assay with H. pylori [1] and in the assay on H. pylori [2] was “not active” in each case. The “Inhibition zone diameter (score)” value in the assay with H. pylori [3] (ATCC standard strain 43504), with H. pylori [3] (ATCC standard strain 49503), in the assay with H. pylori [3] (ATCC standard strain 700392), in the assay with H. pylori [3] (clinical strain HP001) and with H. pylori [3] (clinical strain HP002) was “Nil (‘Nil’ means zone of inhibition below 10 mm)” each time.

In the case of `COc1ccc2[nH]c([S+]([O-])Cc3ncc(C)c(OC)c3C)nc2c1` (stereo not drawn) [Omeprazole, reference compound], the figures for the “Percent inhibition of H^+, K^+-ATPase activity” value in assay [4] (1 mg/assay (so in the source)) and in assay [4] (10 mg/assay (so in the source)) were 20% and “about 80%”, respectively. Further, in assay [4] (dose range of 1-10 μg/assay), the “inhibition of H^+,K^+-ATPase” value is 20-80%.

Consider `CN1CCN(CCCCCCOc2cc(O)c3c(=O)cc(-c4ccccc4)oc3c2)CC1` [NMC-1, 5-Hydroxy-7-[6-(4-methyl-piperazin-1-yl)-hexyloxy]-2-phenyl-chromen-4-one], for which the MIC50 is roughly 6.25 µg/mL (≈ 14.3 µM) in the assay with H. pylori [5] (72 h) and 6.25 µg/mL (≈ 14.3 µM) with H. pylori [5]. The MIC in the assay with H. pylori [5] (72 h, panel of 6 clinical isolates and 4 standard strains, read-out: MIC Range) was 6.25 to 12.5 µg/mL (≈ 14.3 to 28.6 µM); with H. pylori [5] (clinical strain HP001, read-out: MIC), 12.5 µg/mL (≈ 28.6 µM); in the assay with H. pylori [5] (clinical strain HP002, read-out: MIC) it was 6.25 µg/mL (≈ 14.3 µM); in the assay with H. pylori [5] (clinical strain HP003, read-out: MIC), less than 6.25 µg/mL; in the assay with H. pylori [5] (clinical strain HP004, read-out: MIC), less than 6.25 µg/mL; with H. pylori [5] (clinical strain HP005, read-out: MIC), less than 6.25 µg/mL. Also, the MIC in the assay with H. pylori [5] (clinical strain HP006, read-out: MIC) was less than 6.25 µg/mL; in the assay with H. pylori [5] (standard strain 43504, read-out: MIC), less than 12.5 µg/mL; with H. pylori [5] (standard strain 43629, read-out: MIC), 12.5 µg/mL (≈ 28.6 µM); in the assay with H. pylori [5] (standard strain 49503, read-out: MIC) it was 6.25 µg/mL (≈ 14.3 µM); with H. pylori [5] (standard strain 700392, read-out: MIC), 12.5 µg/mL (≈ 28.6 µM); with H. pylori [6] (setting [9]) it was 6.25 µg/mL (≈ 14.3 µM). The MIC against H. pylori [6] (microbroth dilution, HP001) worked out at 6.25 µg/mL (≈ 14.3 µM); in the assay with H. pylori [7] (2 h, pH ~2.0, 2 h, 25° C., 43504, read-out: MIC, Acid treated), 25000 µg/mL (≈ 57300 µM); with H. pylori [7] (2 h, pH ~2.0, 2 h, 25° C., HP001, read-out: MIC, Acid treated) it was 12500 µg/mL (≈ 28600 µM); in the assay with H. pylori [7] (not acid treated, 43504, read-out: MIC, Control), 6250 µg/mL (≈ 14300 µM); with H. pylori [7] (not acid treated, HP001, read-out: MIC, Control) it was 6250 µg/mL (≈ 14300 µM). Further, the MBC in the assay with H. pylori [6] (setting [9]) is 25 µg/mL (≈ 57.3 µM); with H. pylori [6] (microbroth dilution, HP001), 12.5 µg/mL (≈ 28.6 µM); in the assay with H. pylori [7] (2 h, pH ~2.0, 2 h, 25° C., 43504, read-out: MBC, Acid treated), less than 25000 µg/mL; with H. pylori [7] (2 h, pH ~2.0, 2 h, 25° C., HP001, read-out: MBC, Acid treated), 25000 µg/mL (≈ 57300 µM); with H. pylori [7] (not acid treated, 43504, read-out: MBC, Control) it was 25000 µg/mL (≈ 57300 µM); with H. pylori [7] (not acid treated, HP001, read-out: MBC, Control), 12500 µg/mL (≈ 28600 µM). The “Inhibition zone diameter (score)” value in the assay on H. pylori [3] (ATCC standard strain 43504) is recorded as “+ (Inhibition zone diameter ranging 10-20 mm was given a score of ^+)”; with H. pylori [3] (ATCC standard strain 49503), “+ (Inhibition zone diameter ranging 10-20 mm was given a score of ^+)”; in the assay on H. pylori [3] (ATCC standard strain 700392) it was “+ (Inhibition zone diameter ranging 10-20 mm was given a score of ^+)”; with H. pylori [3] (clinical strain HP001) it was “+ (Inhibition zone diameter ranging 10-20 mm was given a score of ^+)”; in the assay on H. pylori [3] (clinical strain HP002) it was “++ (20-30 mm as ^++)”. Also, in the assay on H. pylori [8] (ATCC 43504, at MIC value (6.25 μg/mL)), the “decrease in cell count within 36 h” value was 1 log. For the same molecule, the “killing at MIC dose (1×MIC)” value in the assay on H. pylori [8] (HP001, up to 36 h) is recorded as “could not however exert complete killing even at 36 h”.

A word on the MIC50: it is the lowest concentration that inhibits either 50% of growth or 50% of the strains tested, depending on the study. As a reminder, the MIC is the lowest concentration that inhibits growth of the organism. The term MBC denotes the smallest concentration meeting the test's criterion for killing.
